Measured values published in patent publication US12319664B2, “Herbicidally active 3-phenylisoxazoline-5-carboxamides of cyclopentenylcarboxylic acid derivatives” (Bayer Aktiengesellschaft, priority 2018, dated 2025).

Key:
PHBPU = experiment: Post-emergence herbicidal action against PHBPU; assay type: in vivo, Pharbitis purpurea; conditions: application rate 80 g/ha, rated visually about 3 weeks after treatment
How it was run: (§1)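 Spray-treated at one-leaf stage, 2 to 3 weeks after sowing; greenhouse, sandy loam. Formulation WP or EC, 0.5% additive, 600 l/ha. Readout: visual percent activity at about 3 weeks, untreated = 0%.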

VERPE = experiment: Post-emergence herbicidal action against VERPE; assay type: in vivo, Veronica persica; conditions: application rate 80 g/ha
How it was run: as §1

STEME = experiment: Post-emergence herbicidal action against STEME; assay type: in vivo, Stellaria media; conditions: application rate 80 g/ha, rated visually about 3 weeks after treatment
How it was run: as §1

ALOMY = experiment: Post-emergence herbicidal action against ALOMY; assay type: in vivo, Alopecurus myosuroides; conditions: application rate 80 g/ha, rated visually after about 3 weeks
How it was run: as §1

LOLRI = experiment: Post-emergence herbicidal action against LOLRI; assay type: in vivo, Lolium rigidum; conditions: application rate 80 g/ha, rated visually after about 3 weeks
How it was run: as §1

MATIN = experiment: Post-emergence herbicidal action against MATIN; assay type: in vivo, Matricaria inodora; conditions: application rate 80 g/ha, rated visually about 3 weeks after treatment
Procedure: [table] 2. Post-emergence herbicidal action against harmful plants and crop plant compatibility Seeds of monocotyledonous and dicotyledonous weeds and crop plants are placed in sandy loam in plastic or wood-fibre pots, covered with soil and cultivated in a greenhouse under controlled growth conditions. 2 to 3 weeks after sowing, the test plants are treated at the one-leaf stage. The compounds of the invention, formulated in the form of wettable powders (WP) or as emulsion concentrates (EC), are then sprayed onto the green parts of the plants as aqueous suspension or emulsion with addition of 0.5% additive at a water application rate of 600 l/ha (converted). After the test plants have been kept in the greenhouse under optimum growth conditions for about 3 weeks, the activity of the preparations is rated visually in comparison to untreated controls. For example, 100% activity=the plants have died, 0% activity=like control plants.

AVEFA = experiment: Post-emergence herbicidal action against AVEFA; assay type: in vivo, Avena fatua; conditions: application rate 80 g/ha, rated visually after about 3 weeks
How it was run: as §1

ECHCG = experiment: Post-emergence herbicidal action against ECHCG; assay type: in vivo, Echinochloa crus-galli; conditions: application rate 80 g/ha, rated visually after about 3 weeks
How it was run: as §1

POLCO = experiment: Post-emergence herbicidal action against POLCO; assay type: in vivo, Polygonum convolvulus; conditions: application rate 80 g/ha, rated visually about 3 weeks after treatment
How it was run: as §1

HORMU = experiment: Post-emergence herbicidal action against HORMU; assay type: in vivo, Hordeum murinum; conditions: application rate 80 g/ha
How it was run: as §1

SETVI = experiment: Post-emergence herbicidal action against SETVI; assay type: in vivo, Setaria viridis; conditions: application rate 80 g/ha, rated visually after about 3 weeks
How it was run: as §1

ABUTH = experiment: Post-emergence herbicidal action against ABUTH; assay type: in vivo, Abutilon theophrasti; conditions: application rate 80 g/ha, rated visually about 3 weeks after treatment
How it was run: as §1

AMARE = experiment: Post-emergence herbicidal action against AMARE; assay type: in vivo, Amaranthus retroflexus; conditions: application rate 80 g/ha, rated visually about 3 weeks after treatment
How it was run: as §1

VIOTR = experiment: Post-emergence herbicidal action against VIOTR; assay type: in vivo, Viola tricolor; conditions: application rate 80 g/ha, rated visually about 3 weeks after treatment
How it was run: as §1

Compound | Herbicidal action against [%] PHBPU (PHBPU) [%] | Herbicidal action against [%] VERPE (VERPE) [%] | Herbicidal action against [%] STEME (STEME) [%] | Herbicidal action against [%] ALOMY (ALOMY) [%] | Herbicidal action against [%] LOLRI (LOLRI) [%] | Herbicidal action against [%] MATIN (MATIN) [%] | Herbicidal action against [%] AVEFA (AVEFA) [%] | Herbicidal action against [%] ECHCG (ECHCG) [%] | Herbicidal action against [%] POLCO (POLCO) [%] | Herbicidal action against [%] HORMU (HORMU) [%] | Herbicidal action against [%] SETVI (SETVI) [%] | Herbicidal action against [%] ABUTH (ABUTH) [%] | Herbicidal action against [%] AMARE (AMARE) [%] | Herbicidal action against [%] VIOTR (VIOTR) [%]
CCOC(=O)C1C=CC(NC(=O)C2(C(F)(F)F)CC(c3cc(C)cc(C)c3)=NO2)C1 (mixture of isomers) [Example I-053] | 80 | 80 | 90 | 90 | 90 | 80 | 90 |  |  |  |  |  |  | 
C=CC1(C(=O)NC2C=CC(C(=O)O)C2)CC(c2cc(F)cc(F)c2)=NO1 (stereo not shown) [Example I-011] |  | 80 | 90 | 90 | 90 | 80 | 90 | 90 | 80 | 80 | 80 |  |  | 
C=CC1(C(=O)N[C@H]2C=C[C@@H](C(=O)OCCOC)C2)CC(c2cc(F)cc(F)c2)=NO1 (stereo partly shown) [Example I-018] |  | 90 |  | 100 | 100 | 80 | 100 | 100 | 100 | 90 | 90 | 90 | 90 | 
N#Cc1cccc(C2=NOC(C(=O)NC3C=CC(C(=O)O)C3)(C(F)(F)F)C2)c1 (mixture of isomers) [Example I-085] | 90 | 90 | 80 | 90 | 100 |  | 100 | 90 | 80 | 100 | 80 | 90 | 90 | 80
CCOC(=O)C1C=CC(NC(=O)C2(C(F)(F)F)CC(c3cccc(Cl)c3)=NO2)C1 (mixture of isomers) [Example I-042] |  | 80 | 90 | 100 | 100 | 80 | 100 | 90 |  | 90 | 80 | 80 |  | 
O=C(OCCCl)C1C=CC(NC(=O)C2(C(F)(F)F)CC(c3cc(Cl)cc(Cl)c3)=NO2)C1 (mixture of isomers) [Example I-040] |  | 80 | 90 | 90 | 90 | 80 | 90 | 90 |  | 90 |  | 80 |  | 
Cc1cc(F)cc(C2=NOC(C(=O)N[C@H]3C=C[C@@H](C(=O)OCCCl)C3)(C(F)(F)F)C2)c1 (stereo partly shown) [Example I-031] | 80 | 80 |  | 90 | 100 | 80 | 90 | 80 | 90 | 90 | 90 |  | 90 | 
CCOC(=O)C1=CC[C@H](NC(=O)C2(C)CC(c3cc(F)cc(F)c3)=NO2)C1 (stereo partly shown) [III-07] | 80 | 90 | 90 | 90 | 90 |  | 90 | 90 | 80 | 80 | 90 | 80 | 90 | 90
COC(=O)C1C=CC(NC(=O)C2(C(F)(F)F)CC(c3cccc(Cl)c3)=NO2)C1 (mixture of isomers) [Example I-046] |  | 80 | 90 | 90 | 100 | 80 | 90 | 90 |  | 100 | 80 | 90 | 80 | 
CCOC(=O)C1C=CC(NC(=O)C2(C#N)CC(c3cc(F)cc(F)c3)=NO2)C1 (stereo not shown) [Example I-104] |  | 80 | 80 | 90 | 90 | 80 | 80 | 80 | 90 | 90 |  |  | 80 | 
COCCOC(=O)C1C=CC(NC(=O)C2(C(F)(F)F)CC(c3cc(F)cc(C#N)c3)=NO2)C1 (stereo not shown) [Example I-100] | 80 | 90 | 90 | 100 | 90 |  | 100 | 90 | 90 | 90 | 80 | 80 | 80 | 80
C=CC1(C(=O)N[C@H]2CC=C(C(=O)OC)C2)CC(c2cc(F)cc(F)c2)=NO1 (stereo partly shown) [III-08] | 80 | 90 | 90 | 90 | 90 |  | 100 | 90 | 80 | 100 | 90 | 80 | 80 | 80
O=C(OCC(F)(F)F)C1C=CC(NC(=O)C2(C(F)(F)F)CC(c3cc(Cl)cc(Cl)c3)=NO2)C1 (mixture of isomers) [Example I-041] |  |  | 80 |  | 80 | 80 | 90 | 80 |  | 90 |  | 80 |  | 
CC1(C(=O)NC2C=CC(C(=O)OCCCl)C2)CC(c2cc(F)cc(C#N)c2)=NO1 (mixture of isomers) [Example I-083] | 90 | 90 | 90 | 100 | 100 |  | 100 | 90 | 90 | 100 | 80 | 90 | 90 | 90
CCOC(=O)C1C=CC(NC(=O)C2(C)CC(c3cc(F)cc(F)c3)=NO2)C1 (mixture of isomers) [Example I-059] | 80 | 80 | 90 | 90 | 100 | 90 | 100 | 100 | 80 | 90 | 90 |  | 80 | 
